How the values were obtained:
[1] = phenylquinone writhing test (analgesic effect); assay type: in vivo
Experimental: (§1) In this test, compound 1a according to the invention has a mean effective dose (MED) of 2.5 mg/kg p.o. (64% effect) and compound 1b according to the invention has an MED of 10 mg/kg p.o. (71% effect). […] This small sodium shift indicates the […] nature of the compounds according to the invention.

opiate receptor [2] = assay: opiate receptor binding test with [^3 H]-naloxon as radioligand
Experimental: as §1

opiate receptor [3] = biological target: opiate receptor (Homo sapiens, UniProt P35372); assay: opiate receptor binding test with [^3 H]-dihydromorphine as radioligand
Experimental: as §1

[4] = with the addition of 0.1M sodium chloride

Sequence of opiate receptor (Homo sapiens, UniProt P35372) (P35372 whole entry): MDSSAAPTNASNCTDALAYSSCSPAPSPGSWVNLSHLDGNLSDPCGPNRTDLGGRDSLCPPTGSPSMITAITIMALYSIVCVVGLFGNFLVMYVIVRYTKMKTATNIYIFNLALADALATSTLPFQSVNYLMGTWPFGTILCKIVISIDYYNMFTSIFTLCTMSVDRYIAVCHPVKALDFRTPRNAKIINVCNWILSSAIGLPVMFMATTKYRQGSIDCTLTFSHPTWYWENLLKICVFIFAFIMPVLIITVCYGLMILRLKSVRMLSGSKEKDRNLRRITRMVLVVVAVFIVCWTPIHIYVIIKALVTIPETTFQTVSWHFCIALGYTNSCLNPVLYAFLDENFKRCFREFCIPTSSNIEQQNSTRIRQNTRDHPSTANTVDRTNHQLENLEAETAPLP

SMILES	effect ([1]; dose of 25 mg/kg p.o., comparison compound) [%]	Ki (opiate receptor [2]; [4]) [nM]	Ki (opiate receptor [2]; without sodium chloride) [nM]	effect ([1]; at MED of 2.5 mg/kg p.o.) [%]	Ki (opiate receptor [3]) [nM]	effect ([1]; at MED of 10 mg/kg p.o.) [%]
CC(C)Cc1ccc(C(C)C(=O)O)cc1 (stereo not drawn) [Ibuprofen, reference compound]	65					
COCCN1CC[C@]23c4c5ccc(O)c4O[C@H]2[C@@H](O)CC[C@@]3(O)[C@H]1C5 [compound 1a, 14-hydroxy-N-(2-methoxyethyl)-7,8-dihydronormorphine]		2.39	2.14	64	0.91	
COCCN1CC[C@]23c4c5ccc(O)c4O[C@H]2[C@H](O)CC[C@@]3(O)[C@H]1C5 [compound 1b, 14-hydroxy-N-(2-methoxyethyl)-7,8-dihydronorisomorphine]		1.19	1.07		1.79	71

From US5240933A, “14-hydroxy-N-(2-methoxyethyl)-7,8-dihydromorphine and -norisomorphine, processes for the preparation thereof and the use thereof as pharmaceutical compositions” (Boehringer Ingelheim GmbH, priority 1991, dated 1993)
